Where two headings read alike, the source gives them in different places. Marks after values point to notes of the source that are not given here.
How the values were obtained:
[1] = Stability of gallic acid at pH 5.5 over 24 h; assay type: physicochemical
rabbits [2] = test: Oral LD50 in rabbits (literature); assay type: in vivo, rabbit; conditions: for equivalent dose of the LD50 for a human equivalent of 75 kg: for 10 days
Experimental: For a human equivalent of 75 kg, the equivalent dose would be 210,000 and 255,000 mg/day for 10 days.

rabbits [3] = conditions: cited from earlier work
3T3-L1 adipocytes = conditions: cited from earlier work
[4] = molecular target: T1, Tannase sourced from Aspergillus oryzae (Aspergillus oryzae, UniProt P78581); test: Tannase (10^−3 U/mL) hydrolysis of galloyl glycosides, LC-MS; assay type: biochemical
T1 construct: purchased
Experimental: Standards solutions of monogalloyl glucose, pentagalloyl glucose, and a gallotannin isolate were incubated with tannase at 10^−3 U/mL to characterize the by-products and relative rates of galloyl derivative hydrolysis. 250 μL of 200 ppm monogalloyl glucose or pentagalloyl glucose were incubated with 650 μL of buffer set to the enzyme's optimum conditions (pH 5.5, 0.1 M citric acid buffer, 30° C.), and 100 μL of tannase 10^−3 U/mL for final standard concentrations of 50 ppm. […] Experiments were performed in a static water bath and prepared in triplicate for each time point at 0, 0.016, 0.033, 0.050, 0.083, 0.167, 0.5, 1, 1.5, 2, 3, 4 h. To end enzymatic activity, solutions were immediately diluted with 1000 μL 0.1% formic acid MeOH. Lastly, samples were filtered with a 0.45 μm syringe filter prior to LC-MS analysis.
Galloyl derivatives were characterized and quantified by use of LC-MS on a Thermo Finnigan HPLC. Separations were in reversed-phase using a Finnigan Surveyor HPLC coupled to a Surveyor PDA detector and gradient separations were performed using a Phenomenex Kinetex™ (Bannockburn, II) C18 column, (150×4.6 mm, 2.6 μm) at room temperature. Injections were made into the column by use of a 50 μL sample loop. […] A gradient was run of 0% Phase B for 2 min and changed to 10% Phase B in 4 min, 10% Phase B was held to 10 min, 10 to 40% Phase B in 25 min, and 40% to 65% Phase B in 35 min, 65% to 85% Phase B in 41 min, 85% was held to 49 min before returning to initial conditions. The electrospray interface worked in negative ionization mode. Source and capillary temperatures were set at 325° C., source voltage was 4.0 kV, capillary voltage was set at −47 V, and collision energy for MS/MS analysis was set at 35 eV. The instrument operated with sheath gas and auxiliary gas (N2) flow rates set at 10 units/min and 5 units/min, respectively. The instrument was tuned specifically for pentagalloyl glucose. […] Digalloyl glucoses, and trigalloyl glucoses were quantified at 280 nm and reported as equivalents of monogalloyl glucose. Tetragalloyl glucose and higher were quantified and reported as pentagalloyl glucose equivalents.
Tannase sourced from Aspergillus oryzae was incubated with standard solutions of monogalloyl glucose, pentagalloyl glucose, and a gallotannin isolate sourced from mango in an effort to characterize and quantify the intermediates formed during hydrolysis. […] Characterization of the different galloyl derivatives that can be formed during tannase hydrolysis is critical as they are likely to have different bio efficacies.

tannase = molecular target: T2, tannase (Aspergillus oryzae, UniProt P78581); test: Tannase (20 U/mL) hydrolysis to free gallic acid, rhodanine assay; assay type: biochemical
T2 construct: purchased
T2 sequence (P78581 19-588): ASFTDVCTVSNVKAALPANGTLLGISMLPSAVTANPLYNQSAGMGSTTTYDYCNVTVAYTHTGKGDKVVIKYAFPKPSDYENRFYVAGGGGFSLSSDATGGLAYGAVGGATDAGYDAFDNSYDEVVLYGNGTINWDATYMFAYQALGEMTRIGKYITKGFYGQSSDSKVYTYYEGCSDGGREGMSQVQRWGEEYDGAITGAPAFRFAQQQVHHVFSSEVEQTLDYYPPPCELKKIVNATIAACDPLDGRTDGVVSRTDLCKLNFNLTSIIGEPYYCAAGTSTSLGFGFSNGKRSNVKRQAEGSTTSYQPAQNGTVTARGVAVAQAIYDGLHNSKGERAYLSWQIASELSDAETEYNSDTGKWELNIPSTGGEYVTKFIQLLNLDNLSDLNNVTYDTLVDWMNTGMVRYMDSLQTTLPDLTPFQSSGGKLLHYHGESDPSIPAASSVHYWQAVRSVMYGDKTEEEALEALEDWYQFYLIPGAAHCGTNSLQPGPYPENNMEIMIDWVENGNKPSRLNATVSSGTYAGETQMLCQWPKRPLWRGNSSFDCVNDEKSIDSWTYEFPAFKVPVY
Experimental: 200 uL of 641±16 and 2051±46 ppm GAE gallotannin isolate was aliquotted into test tubes and made up to 1 mL with 20 U/mL tannase hydrated in pH 5.5, 0.1 M citrate buffer. Samples were incubated for 0, 0.16 (10 min), 0.5, 1, 2, 4, 6, 12, and 24 h at 35° C. in a static water bath. After each time point had elapsed, 1 mL of 0.1% formic acid MeOH was added to each test tube. 50 and 100 ppm monogalloyl glucose was also treated with tannase under the same conditions. The total pro-gallic acid content of the gallotannin isolate and monogalloyl glucose were quantified by the colorimetric rhodanine assay modified from Inoue & Hagerman (1988). 600 μL of 0.667% rhodanine in methanol was added to 400 μL of hydrolyzed tannin fraction sample. After 10 min, 400 μL of 0.5 M NaOH was added to develop color for 20 min until bringing the final volume to 10 mL with deionized water. Absorbance was measured at 520 nm.

O=C(O)c1cc(O)c(O)c(O)c1 [Gallic Acid, gallic acid]
stability of gallic acid at the conditions of the method ([1]; 50 and 100 ppm gallic acid in pH 5.5 buffer, after 24 h): did not show any indication of degradation | Gallic acid concentration (stability at pH 5.5) ([1]; gallic acid 50 mg/L, pH 5.5, 0 h): 48.2 ± 1.28 ^a mg/L | Gallic acid concentration (stability at pH 5.5) ([1]; gallic acid 50 mg/L, pH 5.5, 1 h): 50.4 ± 0.45 ^b mg/L | Gallic acid concentration (stability at pH 5.5) ([1]; gallic acid 50 mg/L, pH 5.5, 2 h): 51.2 ± 0.62 ^b mg/L | Gallic acid concentration (stability at pH 5.5) ([1]; gallic acid 50 mg/L, pH 5.5, 12 h): 47.2 ± 0.87 ^b mg/L | Gallic acid concentration (stability at pH 5.5) ([1]; gallic acid 50 mg/L, pH 5.5, 24 h): 49.4 ± 0.37 ^b mg/L | Gallic acid concentration (stability at pH 5.5) ([1]; gallic acid 100 mg/L, pH 5.5, 0 h): 107 ± 3.07 ^a mg/L | Gallic acid concentration (stability at pH 5.5) ([1]; gallic acid 100 mg/L, pH 5.5, 1 h): 102 ± 2.43 ^b mg/L | Gallic acid concentration (stability at pH 5.5) ([1]; gallic acid 100 mg/L, pH 5.5, 2 h): 111 ± 1.63 ^b mg/L | Gallic acid concentration (stability at pH 5.5) ([1]; gallic acid 100 mg/L, pH 5.5, 12 h): 97.9 ± 1.38 ^b mg/L | Gallic acid concentration (stability at pH 5.5) ([1]; gallic acid 100 mg/L, pH 5.5, 24 h): 108 ± 1.11 ^b mg/L | equivalent dose of the LD50 for a human equivalent of 75 kg (rabbits [2]): 210,000 mg/day | oral LD50 (rabbits [3]; rabbit, in vivo, po): 2800 mg/kg/day

Oc1cccc(O)c1O [PG, pyrogallol]
adipogenesis and lipid accumulation (3T3-L1 adipocytes): inhibit adipogenesis and reduce lipid accumulation | thermogenesis (3T3-L1 adipocytes): promotes thermogenesis

O=C(OC[C@H]1O[C@@H](OC(=O)c2cc(O)c(O)c(O)c2)[C@H](OC(=O)c2cc(O)c(O)c(O)c2)[C@@H](OC(=O)c2cc(O)c(O)c(O)c2)[C@@H]1OC(=O)c1cc(O)c(O)c(O)c1)c1cc(O)c(O)c(O)c1 [pentagalloyl glucose]
total pro-gallic acid content generated (molar basis) ([4]; 2 h incubation): 45.5±0.53% | pentagalloyl glucose hydrolyzed ([4]; 2 h incubation, pH 5.5, 30° C.): 97.2±0.27%

O=C(OC[C@H]1O[C@@H](OC(=O)c2cc(O)c(O)c(OC(=O)c3cc(O)c(O)c(O)c3)c2)[C@H](OC(=O)c2cc(O)c(O)c(OC(=O)c3cc(O)c(O)c(O)c3)c2)[C@@H](OC(=O)c2cc(O)c(O)c(OC(=O)c3cc(O)c(O)c(O)c3)c2)[C@@H]1OC(=O)c1cc(O)c(O)c(OC(=O)c2cc(O)c(O)c(O)c2)c1)c1cc(O)c(O)c(OC(=O)c2cc(O)c(O)c(O)c2)c1 [tannic acid]
equivalent dose of the LD50 for a human equivalent of 75 kg (rabbits [2]): 255,000 mg/day | margin of the highest selected study dose (566 mg/L) below the LD50 dose (rabbits [2]; human equivalent of 75 kg): 451 fold | oral LD50 (rabbits [3]; rabbits, for 10 days): 3400 mg/kg/day

monogalloyl glucose
time to reach the same amount of generated gallic acid as pentagalloyl glucose at 2 h [4]: 4 h | total pro-gallic acid content generated (molar basis) ([4]; 2 h incubation): 28.9±0.26% | hydrolysis to free gallic acid (tannase; 1 h incubation with 20 U/mL of tannase): completely hydrolyzed to free gallic acid | Free gallic acid from hydrolysis with 20 U/mL of tannase (tannase; monogalloyl glucose 50 mg/L, pH 5.5, 0 h): 1.26 ± 0.13 ^a mg/L | Free gallic acid from hydrolysis with 20 U/mL of tannase (tannase; monogalloyl glucose 50 mg/L, pH 5.5, 1 h): 19.9 ± 0.13 ^b mg/L | Free gallic acid from hydrolysis with 20 U/mL of tannase (tannase; monogalloyl glucose 50 mg/L, pH 5.5, 2 h): 20.2 ± 0.88 ^b mg/L | Free gallic acid from hydrolysis with 20 U/mL of tannase (tannase; monogalloyl glucose 50 mg/L, pH 5.5, 12 h): 20.1 ± 0.25 ^b mg/L | Free gallic acid from hydrolysis with 20 U/mL of tannase (tannase; monogalloyl glucose 50 mg/L, pH 5.5, 24 h): 19.9 ± 0.87 ^b mg/L | Free gallic acid from hydrolysis with 20 U/mL of tannase (tannase; monogalloyl glucose 100 mg/L, pH 5.5, 0 h): 1.76 ± 0.25 ^a mg/L | Free gallic acid from hydrolysis with 20 U/mL of tannase (tannase; monogalloyl glucose 100 mg/L, pH 5.5, 1 h): 39.7 ± 0.50 ^b mg/L | Free gallic acid from hydrolysis with 20 U/mL of tannase (tannase; monogalloyl glucose 100 mg/L, pH 5.5, 2 h): 42.5 ± 1.01 ^b mg/L | Free gallic acid from hydrolysis with 20 U/mL of tannase (tannase; monogalloyl glucose 100 mg/L, pH 5.5, 12 h): 39.2 ± 1.89 ^b mg/L | Free gallic acid from hydrolysis with 20 U/mL of tannase (tannase; monogalloyl glucose 100 mg/L, pH 5.5, 24 h): 35.7 ± 3.14 ^b mg/L

Reference: US20220175893A1, “COMBINATIONS OF TANNASE AND PROBIOTIC FORMULATIONS AND METHODS OF USE FOR IMPROVING TANNIN METABOLISM” (THE TEXAS A&M UNIVERSITY SYSTEM, priority 2019, published 2022)
